# Experimental data published in patent US20250357519A1, “APPLICATIONS OF O2-INSENSITIVE FORMATE DEHYDROGENASE” (UNIVERSITY OF MARYLAND, BALTIMORE, priority 2022, published 2025).
# Read-outs that look alike come from different tables or passages of the source.
# Legend:
# [1] = system: Desulfovibrio vulgaris Hildenborough (DvH) W-FDH1, wild-type natively-purified (W-FDH1^WT), large subunit DVU0587 SEQ ID NO: 29, small subunit DVU0588 SEQ ID …; settings: pH 7.6, RT, 2 mM BV, cited from earlier work
# [2] = system: Desulfovibrio desulfuricans (Dd) Mo-FDH3, wild-type natively-purified (Mo-FDH3^WT); settings: cited from earlier work
# [3] = system: Desulfovibrio vulgaris Hildenborough (DvH) FDH2, wild-type natively-purified (FDH2^WT), large subunit DVU2482 SEQ ID NO: 31, small subunit DVU2481 SEQ ID NO: …; settings: cited from earlier work
# [4] = target: T1, Desulfovibrio vulgaris Hildenborough (DvH) FDH2, recombinant Strep-tag II-tagged (FDH2^Rec), large subunit DVU2482 SEQ ID NO: 31, small subunit DVU2481 SEQ ID N (Nitratidesulfovibrio vulgaris, UniProt Q728X0); assay: PES/DCPIP assay of formate oxidation
# T1 sequence (Q728X0 36-1003): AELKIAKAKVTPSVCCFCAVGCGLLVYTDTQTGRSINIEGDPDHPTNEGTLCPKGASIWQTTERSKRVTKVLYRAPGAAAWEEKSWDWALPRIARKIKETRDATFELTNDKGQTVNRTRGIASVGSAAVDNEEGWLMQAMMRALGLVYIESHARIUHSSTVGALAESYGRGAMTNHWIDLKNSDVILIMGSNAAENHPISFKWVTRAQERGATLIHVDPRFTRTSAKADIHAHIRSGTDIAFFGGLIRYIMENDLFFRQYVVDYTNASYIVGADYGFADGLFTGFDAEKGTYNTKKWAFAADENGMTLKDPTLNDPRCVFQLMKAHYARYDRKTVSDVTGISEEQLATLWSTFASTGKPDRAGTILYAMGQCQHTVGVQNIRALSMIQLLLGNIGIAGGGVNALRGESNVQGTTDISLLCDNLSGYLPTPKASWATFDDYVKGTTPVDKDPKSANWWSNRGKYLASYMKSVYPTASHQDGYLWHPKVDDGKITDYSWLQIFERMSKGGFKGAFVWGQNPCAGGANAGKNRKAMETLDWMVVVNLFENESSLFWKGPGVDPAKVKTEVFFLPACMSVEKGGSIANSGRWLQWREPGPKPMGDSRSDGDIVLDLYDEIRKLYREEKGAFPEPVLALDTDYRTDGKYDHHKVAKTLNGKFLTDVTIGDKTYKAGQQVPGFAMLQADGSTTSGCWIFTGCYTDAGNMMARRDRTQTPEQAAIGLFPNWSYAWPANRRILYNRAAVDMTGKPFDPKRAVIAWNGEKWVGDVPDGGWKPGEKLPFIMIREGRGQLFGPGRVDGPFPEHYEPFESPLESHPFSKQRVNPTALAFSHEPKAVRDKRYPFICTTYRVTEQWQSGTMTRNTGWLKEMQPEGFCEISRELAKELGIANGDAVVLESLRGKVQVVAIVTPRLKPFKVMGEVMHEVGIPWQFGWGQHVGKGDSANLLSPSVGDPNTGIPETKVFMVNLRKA
# T1 sequence (Q728X1 1-260 partner): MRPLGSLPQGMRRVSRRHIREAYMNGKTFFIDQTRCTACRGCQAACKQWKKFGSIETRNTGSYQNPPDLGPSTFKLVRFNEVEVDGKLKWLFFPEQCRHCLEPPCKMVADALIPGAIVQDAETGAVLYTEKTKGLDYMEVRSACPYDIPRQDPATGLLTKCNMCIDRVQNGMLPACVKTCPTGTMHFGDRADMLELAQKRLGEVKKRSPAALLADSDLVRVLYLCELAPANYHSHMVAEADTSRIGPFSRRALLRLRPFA
# [5] = system: Desulfovibrio alaskensis (Da) W-FDH1, wild-type natively-purified (W-FDH1^WT); settings: pH 8.0, 37 °C, 7.5 mM BV, 35 nM enzyme; Mota (2011); cited from earlier work
# [6] = 0.0124 nM enzyme, Da Silva et al (2011)
# [7] = pH 7.6, 37 °C, 7.5 mM BV, 35 nM enzyme, Rivas et al (2007)
# [8] = pH 8.0, 22 °C, 5 mM BV, 1 nM enzyme, Maia et al (2016)
# [9] = pH 8.0, 37 °C, 7.5 mM BV, 35 nM enzyme, Mota (2011)
# [10] = BV (2 mM), anaerobic, 1 replicate, da Silva et al (2011), Table 4
# [11] = pH 7.6, RT, 2 mM BV, 0.48 nM enzyme, Da Silva et al (2011)
structure (smiles),measurement,setting,value
O=CO [formate],Km,[1]; [6],1 µM
same,kcat,[1]; [6],3684 s⁻¹
same,kcat,"[1]; 1.4 nM enzyme, Oliveira et al (2020)",1104 ± 62 s⁻¹
same,Km,[2]; [7],65 ± 8 µM
same,kcat,[2]; [7],357 ± 18 s⁻¹
same,Km,[2]; [8],57 µM
same,kcat,[2]; [8],543 s⁻¹
same,Km,[2]; [9],64 µM
same,kcat,[2]; [9],347 s⁻¹
same,Km,[3]; [10],4 µM
same,kcat,[3]; [10],81 s⁻¹
same,Km,[3]; [11],4 µM
same,kcat,[3]; [11],81 s⁻¹
same,kcat,"[4]; DCPIP (air), full progress curve global fit",354 ± 5 s⁻¹
same,kcat,"[4]; DCPIP (anaerobic), full progress curve global fit",258 ± 3 s⁻¹
same,kcat,"[4]; PES/DCPIP, air, initial velocities, 10 replicates, pH 8.0",317 ± 14 s⁻¹
same,TN (kcat) relative to that obtained with 2 mM BV,"[4]; PES/DCPIP, anaerobic full-progress curves vs 2 mM BV",~5 fold
same,kcat,"[4]; PES/DCPIP, anaerobic, initial velocities, 5 replicates, pH 8.0",220 ± 5 s⁻¹
same,TN (kcat) for formate oxidation relative to Mo-Cys-FDH from Rhodobacter capsulatus,"[4]; PES/DCPIP, comparator with NAD^+ as acceptor (ref 40)",roughly an order of magnitude
same,binding constant (Km) for formate,"[4]; general statement, 1.6 nM enzyme, formate 0 to 100 μM",low micromolar range
same,Km,[5],10 µM
same,kcat,[5],241 s⁻¹
